Laboratory results taken from patent US11173193B2, “Immunobiological products” (priority 2016, dated 2021).
One block for each compound: values may come before it.

Columns and labels:
[1] = Solubility of hydro-colloid and chitosan; assay type: physicochemical
Description: Test solution: An adequate sample of Chitosan HCl, Chitosan-HAc, Chitosan, Chitosan-Valeric acid-Hydro Colloid and valeric acid, respectively was dissolved in the solvent above. This mixture was shacked and afterwards sonified in an ultrasonic bath for 5 min.
Sample: Chitosan suspended in water
Result: An acceptable solution of Chitosan in waterish or organic solvents like Methanol etc. is not possible. A suitable solubilization of Chitosan is only possible in stronger acids like HCl or HAc under production of Chitosan HCl or Chitosan HAc.

mice = test: Ear swelling test of mice, compared to Hostacortin H; assay type: in vivo
Description: Ear erythema was determined by visual inspection and detection of presence (+) or absence (−) signs.
The thickness of the control and experimental ear in all animals was measured with a micrometer. Performance measurements were summed (Σ) separately the right and left ears in groups. The percentage of ear swelling and activity series is calculated using the following formulas: […]

subclinical mastitis = conditions: known methods of treating mastitis of cows; cited from earlier work
[2] = Dose 0.1 ml, right ear (allergen provocation site)

- Solubility in water [1]: water insoluble
- solution in waterish or organic solvents like Methanol [1]: not possible
Compound: chitosan

Compound: CC(=O)OCC(=O)[C@@]1(O)CC[C@H]2[C@@H]3CCC4=CC(=O)C=C[C@]4(C)[C@H]3[C@@H](O)C[C@@]21C [prednisolone-21-acetyl, prednisolone-21-acetate]
- Antiallergic activity in Ear swelling test after 2 hours post challenge (mice; Dose 0.1 ml): 14.2%
- Antiallergic activity in Ear swelling test after 24 hours post challenge (mice; Dose 0.1 ml): 17.5%
- Antiallergic activity in Ear swelling test after 48 hours post challenge (mice; Dose 0.1 ml): 10.7%
- Σ Ear thickness after 2 hours post challenge, Left (mice; Dose 0.1 ml, left ear): 335 μm
- Σ Ear thickness after 24 hours post challenge, Left (mice; Dose 0.1 ml, left ear): 330 μm
- Σ Ear thickness after 48 hours post challenge, Left (mice; Dose 0.1 ml, left ear): 326 μm
- Σ Ear thickness after 2 hours post challenge, Right (mice; [2]): 345 μm
- Σ Ear thickness after 24 hours post challenge, Right (mice; [2]): 360 μm
- Σ Ear thickness after 48 hours post challenge, Right (mice; [2]): 355 μm
- inflammatory response in challenged mice (mice; all stages of the experiment): positive dynamics of reducing inflammatory response

Compound: CCN(CC)CCOC(=O)c1ccc(N)cc1 [procaine]
- recovery time (subclinical mastitis): 3 to 5 days
